Entries after “also recorded” stand apart in the source; their conditions may differ.

In series [1] the target is electric eel AChE (Electrophorus electricus, UniProt O42275). Kind of series: biochemical.
Series [2] has as its system AChE. Type of series: biochemical, electric eel and human.
Series [3] is described as follows: in vivo. The conditions noted are these: mouse, im.
Series [4] is described as follows: in vivo. The conditions noted are these: mouse, po.
On the set-up of series [5]: species or system Male ICR mice. The conditions noted are these: mouse, in vivo.
For series [6] the following is noted: mouse, in vivo.
In series [7] the target is human erythrocyte AChE (Homo sapiens, UniProt P22303). Kind of series: biochemical. The conditions noted are these: read-out: kobs /[I] (human).
Sequence of human erythrocyte AChE (P22303-2 with tags, fused parts or gaps limits assumed): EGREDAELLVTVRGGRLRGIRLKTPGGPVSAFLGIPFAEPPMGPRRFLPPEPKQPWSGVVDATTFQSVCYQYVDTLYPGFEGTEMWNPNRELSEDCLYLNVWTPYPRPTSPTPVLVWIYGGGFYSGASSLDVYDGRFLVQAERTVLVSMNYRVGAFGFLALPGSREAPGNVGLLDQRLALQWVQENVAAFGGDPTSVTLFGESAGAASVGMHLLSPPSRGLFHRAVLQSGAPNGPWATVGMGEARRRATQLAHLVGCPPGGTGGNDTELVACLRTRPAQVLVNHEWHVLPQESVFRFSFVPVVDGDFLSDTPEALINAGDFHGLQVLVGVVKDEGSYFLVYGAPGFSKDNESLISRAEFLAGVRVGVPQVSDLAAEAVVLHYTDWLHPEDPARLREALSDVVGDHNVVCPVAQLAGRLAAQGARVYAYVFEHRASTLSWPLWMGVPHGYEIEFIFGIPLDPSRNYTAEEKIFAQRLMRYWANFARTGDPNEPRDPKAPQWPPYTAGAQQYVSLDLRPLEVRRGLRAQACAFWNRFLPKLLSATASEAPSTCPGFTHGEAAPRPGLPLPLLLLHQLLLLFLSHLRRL

Sequence of electric eel AChE (O42275 24-633): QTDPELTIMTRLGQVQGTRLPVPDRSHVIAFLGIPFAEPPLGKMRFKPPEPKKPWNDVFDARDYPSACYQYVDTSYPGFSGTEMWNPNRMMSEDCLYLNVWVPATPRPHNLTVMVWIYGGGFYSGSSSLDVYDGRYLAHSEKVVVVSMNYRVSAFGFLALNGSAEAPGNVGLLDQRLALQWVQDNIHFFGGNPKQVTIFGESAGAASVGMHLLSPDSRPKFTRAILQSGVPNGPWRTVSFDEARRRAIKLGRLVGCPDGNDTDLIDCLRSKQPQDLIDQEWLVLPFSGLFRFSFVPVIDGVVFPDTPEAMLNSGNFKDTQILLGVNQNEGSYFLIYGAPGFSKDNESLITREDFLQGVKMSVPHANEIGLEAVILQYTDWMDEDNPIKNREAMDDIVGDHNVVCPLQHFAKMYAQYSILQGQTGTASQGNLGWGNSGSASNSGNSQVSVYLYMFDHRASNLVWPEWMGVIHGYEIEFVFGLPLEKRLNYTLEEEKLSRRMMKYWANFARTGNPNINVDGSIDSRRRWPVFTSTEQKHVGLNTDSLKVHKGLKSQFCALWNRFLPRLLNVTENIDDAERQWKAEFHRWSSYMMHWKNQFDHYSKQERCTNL

For the compound `CNC(=O)Oc1ccc2c(c1)[C@]1(C)CCN(C)[C@@H]1N2C` [Phy, Physostigmine], the “kobs /[I] (eel)” value in series [1] (0.1 m phosphate buffer) is 14000 M⁻¹ s⁻¹.

Regarding `C[n+]1ccccc1C=NOCc1ccccc1` [Compound 1a, O-Benzyl-N-(1-methyl-2-pyridinemethylene) hydroxylamine chloride], in series [2], the mode of inhibition result was “pure competitive inhibition”. The compound further showed an LD50 at 24 h in series [3] of 180 µmol/kg.

For the compound `C[n+]1ccccc1/C=N/O` [Compound 2-PAM, reference compound], the LD50 at 24 h in series [3] amounted to 853 µmol/kg.

As for `C[n+]1cccc(O)c1C=NNC(=O)C[n+]1ccccc1` [Compound 5a, 2-(3-Hydroxy-1-methyl-2-pyridinemethylene)-1-[2-(1-pyridinium)acetyl]hydrazine dichloride], the LD50 at 24 h in series [4] was 2900 µmol/kg; in series [3], more than 670 µmol/kg. Besides, the “GA reactivator activity in words” value in series [5] is “significant activity as GA reactivators; also recorded: good in vivo reactivators against GA”.

Turning to `C[n+]1cc(O)ccc1C=NO` [Compound 1g, reference compound], the toxicity in words result in series [6] is given as “small increase in toxicity”. The compound also had an LD50 at 24 h in series [3] of more than 514 µmol/kg.

In series [3], `C[n+]1ccccc1C=NNC(=O)C[n+]1ccccc1` [Compound 5b, 2-(1-Methyl-2-pyridinemethylene)-1-[2-(1-pyridinium)acetyl]hydrazine dichloride] had an LD50 at 24 h of 380 µmol/kg. In addition, the “GA reactivator activity in words” value in series [5] was “significant activity as GA reactivators; also recorded: good in vivo reactivators against GA”.

With `C[n+]1cccc(O)c1C=NO` [Compound 1f], in series [6], the toxicity in words result is “small increase in toxicity”.

In series [3], `CON=Cc1c(O)ccc[n+]1C` [Compound 1c, O-Methyl-N-(3-hydroxy-1-methyl-2-pyridinemethylene) hydroxylamine chloride] showed an LD50 at 24 h of more than 1970 µmol/kg.

For `COc1ccc(CON=Cc2c(O)ccc[n+]2C)cc1` [Compound 1e, O-(p-Methoxybenzyl)-N-(3-hydroxy-1-methyl-2-pyridinemethylene) hydroxylamine chloride], the LD50 at 24 h in series [4] was more than 3200 µmol/kg; in series [3] it was more than 760 µmol/kg. Moreover, the mode of inhibition entry in series [2] was “pure competitive inhibition”.

`C[n+]1ccccc1C=NNC(=O)Nc1ccccc1.[Cl-]` [Compound 3d, 1-Methyl-2-[[(N-phenylaminocarbonyl)hydrazono]methyl]pyridinium chloride] showed an LD50 at 24 h in series [3] of more than 430 µmol/kg.

Consider `CN(C)C(=O)Oc1ccc[n+](C)c1` [Pyr, Pyridostigmine], for which the kinact/KI in series [7] worked out at 13000 M⁻¹ s⁻¹; in series [1] (read-out: kobs /[I] (eel)), 580 M⁻¹ s⁻¹.

Consider `C[n+]1cccc(O)c1C=NNC(=O)Nc1ccccc1.[Cl-]` [Compound 3b, 3-Hydroxy-1-methyl-2-[[(N-phenylaminocarbonyl)hydrazono]methyl]pyridinium chloride], for which, in series [3], the LD50 at 24 h is more than 40 µmol/kg.

The compound `NC(=O)c1cc[n+](COC[n+]2ccccc2/C=N/O)cc1` [HI-6, reference compound] displayed an LD50 at 24 h in series [3] of 4500 µmol/kg.

In series [3], `C[n+]1cccc(O)c1C=NNC(N)=O.[Cl-]` [Compound 3a, 2-[[(Aminocarbonyl)hydrazono]methyl]-3-hydroxy-1-methyl pyridinium chloride] came in with an LD50 at 24 h of more than 1100 µmol/kg.

In series [3], `C[n+]1ccccc1C=NNC(N)=O` [Compound 3c] came in with an LD50 at 24 h of more than 560 µmol/kg.

Consider `C[n+]1cccc(O)c1C=NOCc1ccccc1` [Compound 1b, O-Benzyl-N-(3-hydroxy-1-methyl-2-pyridinemethylene) hydroxylamine chloride], for which the figures for the LD50 at 24 h in series [4] and in series [3] were 3600 µmol/kg and more than 880 µmol/kg, respectively. Also, the mode of inhibition entry in series [2] is “pure competitive inhibition”.

Turning to `C[n+]1cccc(O)c1C=NOCc1ccc(Cl)cc1` [Compound 1d, O-(p-Chlorobenzyl)-N-(3-hydroxy-1-methyl-2-pyridinemethylene) hydroxylamine chloride], the mode of inhibition result in series [2] is given as “pure competitive inhibition”. Moreover, the LD50 at 24 h in series [3] is more than 320 µmol/kg.

(Values after patent US5180831A (priority 1990, dated 1993).)
